Legend:
MRE11 = MRE11 (Homo sapiens (Human), UniProt P49959); test: HTS nuclease assay (fluorescence-quenched 5′ overhang DNA substrate cleavage); format: biochemical; settings: 18 nM MRE11, 40 nM DNA substrate, analysis at t=4 h
Description: DNA Substrate Preparation
The DNA substrate is prepared by mixing the oligonucleotides listed below in a 1:1 ratio to reach a final concentration of 6 μM in a buffer containing 50 mM Tris pH 7.5, 100 mM NaCl and 8 mM MgCl2.
The mixture is heat for 3 min at 65° C. and let to cool down slowly to RT. Then it is stored at −20° C.
This substrate is a 5′ overhang, which is a preferred substrate of MRE11. […] The fluorescence increases upon substrate cleavage by MRE11, when separation of the two labels occur.
The conditions of the assay are as follows:
Total reaction volume: 5 μL
DNA substrate concentration in the reaction: 40 nM
Inhibitor concentration range tested: 7 nM-50 μM
Each plate contains a series of high and low signal control wells, where no compound is added:
High signal: MRE11+DNA substrate
Low signal: DNA substrate only
These are used during data evaluation.
Two Extra Assay Controls:
1) To check whether unwinding of DNA by the compounds alone occurs.
The DNA substrate [CY5+BBQ(650)] is mixed with the compounds with no protein present.
The CY5 single stranded oligo is mixed with the compounds with no protein present.
The layout of the plates is created by the in-house software (CZ-Openscreen Prague) and this information is transferred to the robotic HTS station.
The reaction is started by the addition of DNA and the reaction time is counted from that moment, including a 15 min delay. Ten timepoints are measured:
The assay data analysis was performed at t=4 h. This corresponds to the time when the reaction is close to its maximum.
The data analysis was performed using the in-house software (CZ-Openscreen Prague) to obtain IC50 for each compound.

[1] = test system: Phosphorylated RPA32 S4/S8 in U2OS cells; test: RPA assay (camptothecin-induced RPA phosphorylation); format: cell-based; settings: Homo sapiens, 1 h pre-treatment, 1 uM camptothecin 1 h; for inhibition at 10 µM: 10 μM inhibitor
Description: U2OS cells were pre-treated for 1 h with MRE11 inhibitors followed by addition of 1 uM camptothecin for 1 h. Cells were lysed in SDS-PAGE loading buffer, sonicated and boiled at 70° C. for 10 min. Equal amounts of protein (50-100 μg) were analysed by Tris-glycine gel electrophoresis Expression levels were quantified using Multi Gauge software and expressed relative to loading control. Phosphorylated RPA32 S4/S8 (A300-245A, Bethyl Laboratories) 1:1000 dilution was used.

DR-GFP U2OS cells = test: HR assay (GFP fluorescence by flow cytometry after I-SceI transfection); format: cell-based; settings: Homo sapiens, 25 μM inhibitor, 72 hours after transfection
Description: DR-GFP U2OS cells (Methods in Molecular Biology 2012, 920, 379.) were transfected with 2.5 μg of I-SceI-expressing pCAGGS vector and treated with the inhibitors at 25 μM concentration. 72 hours after the transfection, the cells were trypsinized and resuspended in 3% BSA in PBS. GFP fluorescence detection was carried out using a BD FACSVerse flow cytometer and data analyzed with FlowJo software.

Sequence of MRE11 (P49959 whole entry): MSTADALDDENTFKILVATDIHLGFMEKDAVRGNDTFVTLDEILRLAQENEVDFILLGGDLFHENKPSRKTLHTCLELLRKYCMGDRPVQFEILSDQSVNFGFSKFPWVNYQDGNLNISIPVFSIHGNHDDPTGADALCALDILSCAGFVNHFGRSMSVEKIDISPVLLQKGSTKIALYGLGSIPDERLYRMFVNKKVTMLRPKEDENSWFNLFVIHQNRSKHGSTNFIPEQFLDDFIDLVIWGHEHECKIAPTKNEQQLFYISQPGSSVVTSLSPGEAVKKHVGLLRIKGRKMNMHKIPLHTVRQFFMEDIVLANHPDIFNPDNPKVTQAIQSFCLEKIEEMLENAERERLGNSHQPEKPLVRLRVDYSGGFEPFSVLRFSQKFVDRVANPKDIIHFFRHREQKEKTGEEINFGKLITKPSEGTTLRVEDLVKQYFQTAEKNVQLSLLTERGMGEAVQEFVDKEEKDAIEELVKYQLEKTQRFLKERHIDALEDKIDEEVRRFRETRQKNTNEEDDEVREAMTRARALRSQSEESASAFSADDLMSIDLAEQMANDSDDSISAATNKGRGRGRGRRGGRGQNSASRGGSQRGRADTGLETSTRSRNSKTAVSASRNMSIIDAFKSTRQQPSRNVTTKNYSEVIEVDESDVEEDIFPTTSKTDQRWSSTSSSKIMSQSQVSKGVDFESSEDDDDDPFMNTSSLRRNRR

| Structure (SMILES) | IC50 (MRE11) | inhibition at 25 µM ([1]; 25 μM inhibitor) | inhibition at 25 µM (DR-GFP U2OS cells) | inhibition at 10 µM [1] |
| --- | --- | --- | --- | --- |
| CC(C)(C)c1cc(CC(C#N)C(=O)Nc2nc(-c3ccccc3)cs2)cc(C(C)(C)C)c1O (centres unmarked) [Preparative Example 139, 2-cyano-3-(3,5-di-tert-butyl-4-hydroxyphenyl)-N-(4-phenylthiazol-2-yl)propanamide] | – | – | > 75% | 70% |
| N#CC(Cc1ccc(O)c(O)c1)C(=O)Nc1nc(-c2ccsc2)cs1 (centres unmarked) [Preparative Example 145, 2-cyano-3-(3,4-dihydroxyphenyl)-N-(4-(thiophen-3-yl)thiazol-2-yl)propanamide] | 2 to 10 µM | – | < 50% | – |
| N#CC(Cc1ccc(O)c(O)c1)C(=O)Nc1nc(-c2ccc(Br)cc2)cs1 (centres unmarked) [Preparative Example 129, N-(4-(4-bromophenyl)thiazol-2-yl)-2-cyano-3-(3,4-dihydroxyphenyl)propanamide] | 2 to 10 µM | – | > 75% | 60% |
| N#CC(Cc1ccc(O)c(O)c1)C(=O)Nc1nc(-c2ccc(C(F)(F)F)cc2)cs1 (centres unmarked) [Preparative Example 132, 2-cyano-3-(3,4-dihydroxyphenyl)-N-(4-(4-(trifluoromethyl)phenyl)thiazol-2-yl)propanamide] | 2 to 10 µM | – | > 75% | – |
| N#CC(Cc1ccc(O)c(O)c1)C(=O)Nc1nc(-c2cccc(-c3ccccc3)c2)cs1 (centres unmarked) [Preparative Example 138, N-(4-([1,1′-biphenyl]-3-yl)thiazol-2-yl)-2-cyano-3-(3,4-dihydroxyphenyl)propanamide] | 2 to 10 µM | – | > 75% | – |
| N#CC(Cc1ccc(O)c(O)c1)C(=O)Nc1nc(-c2ccccc2)c(C2CCCCC2)s1 (centres unmarked) [Preparative Example 146, 2-cyano-N-(5-cyclohexyl-4-phenylthiazol-2-yl)-3-(3,4-dihydroxyphenyl)propanamide] | 2 to 10 µM | – | > 75% | – |
| N#CC(Cc1ccc(O)c(O)c1)C(=O)Nc1nc(-c2cc(Cl)sc2Cl)cs1 (centres unmarked) [Preparative Example 175, 2-cyano-N-(4-(2,5-dichlorothiophen-3-yl)thiazol-2-yl)-3-(3,4-dihydroxyphenyl)propanamide] | 2 to 10 µM | – | 50 to 75% | – |
| N#CC(Cc1cc(F)c(O)c(Cl)c1)C(=O)Nc1nc(-c2ccccc2)cs1 (centres unmarked) [Preparative Example 156, 3-(3-chloro-5-fluoro-4-hydroxyphenyl)-2-cyano-N-(4-phenylthiazol-2-yl)propanamide] | 2 to 10 µM | – | < 50% | – |
| Cc1cc(CC(C#N)C(=O)Nc2nc(-c3ccccc3)cs2)cc(Cl)c1O (centres unmarked) [Preparative Example 155, 3-(3-chloro-4-hydroxy-5-methylphenyl)-2-cyano-N-(4-phenylthiazol-2-yl)propanamide] | 10 to 90 µM | – | < 50% | – |
| Cc1cc(CC(C#N)C(=O)Nc2nc(-c3ccccc3)cs2)cc(C)c1O (centres unmarked) [Preparative Example 147, 2-cyano-3-(4-hydroxy-3,5-dimethylphenyl)-N-(4-phenylthiazol-2-yl)propanamide] | 10 to 90 µM | – | 50 to 75% | – |

More lines, main results first:

| IC50 (MRE11) | Structure (SMILES) | inhibition at 25 µM ([1]; 25 μM inhibitor) | inhibition at 25 µM (DR-GFP U2OS cells) | inhibition at 10 µM [1] |
| --- | --- | --- | --- | --- |
| < 2 µM | N#CC(Cc1ccc(O)c(O)c1Br)C(=O)Nc1nc(-c2ccccc2)cs1 (centres unmarked) [Preparative Example 148, 3-(2-bromo-3,4-dihydroxyphenyl)-2-cyano-N-(4-phenylthiazol-2-yl)propanamide] | 90% | > 75% | – |
| 2 to 10 µM | N#CC(Cc1ccc(O)c(O)c1)C(=O)Nc1nc(-c2ccc(OC(F)(F)F)cc2)cs1 (centres unmarked) [Preparative Example 136, 2-cyano-3-(3,4-dihydroxyphenyl)-N-(4-(4-(trifluoromethoxy)phenyl)thiazol-2-yl)propanamide] | – | > 75% | 40% |
| 2 to 10 µM | CC(C)(C)c1ccc(-c2csc(NC(=O)C(C#N)Cc3ccc(O)c(O)c3)n2)cc1 (centres unmarked) [Preparative Example 140, N-(4-(4-(tert-butyl)phenyl)thiazol-2-yl)-2-cyano-3-(3,4-dihydroxyphenyl)propanamide] | – | > 75% | 40% |
| < 2 µM | N#CC(Cc1ccc(O)c(O)c1)C(=O)Nc1nc(-c2cc(C(F)(F)F)ccn2)cs1 (centres unmarked) [Preparative Example 174, 2-cyano-3-(3,4-dihydroxyphenyl)-N-(4-(4-(trifluoromethyl)pyridin-2-yl)thiazol-2-yl)propanamide] | – | > 75% | – |
| < 2 µM | COc1ccc(-c2csc(NC(=O)C(C#N)Cc3ccc(O)c(O)c3)n2)nc1 (centres unmarked) [Preparative Example 168, 2-cyano-3-(3,4-dihydroxyphenyl)-N-(4-(5-methoxypyridin-2-yl)thiazol-2-yl)propanamide] | – | > 75% | – |
| < 2 µM | COc1ccnc(-c2csc(NC(=O)C(C#N)Cc3ccc(O)c(O)c3)n2)c1 (centres unmarked) [Preparative Example 167, 2-cyano-3-(3,4-dihydroxyphenyl)-N-(4-(4-methoxypyridin-2-yl)thiazol-2-yl)propanamide] | – | > 75% | – |
| < 2 µM | N#CC(Cc1ccc(O)c(O)c1)C(=O)Nc1nc(-c2ccc(Cl)cc2Cl)cs1 (centres unmarked) [Preparative Example 171, 2-cyano-N-(4-(2,4-dichlorophenyl)thiazol-2-yl)-3-(3,4-dihydroxyphenyl)propanamide] | – | > 75% | – |

Reference: US11453663B2, “Substituted propanamides as inhibitors of nucleases” (MASARYKOVA UNIVERZITA, priority 2018, dated 2022)
